Data from publication PMC5327470, “Discovery and Optimization of Novel 5-Indolyl-7-arylimidazo[1,2-a]pyridine-8-carbonitrile Derivatives as Potent Antitubulin Agents Targeting Colchicine-binding Site” (Scientific Reports, 2017).

What was measured:
[1] = tested on: HT-29 (human colon cancer); assay: MTT antiproliferative assay, HT-29; type: cell-based; settings: for IC50: Homo sapiens, HT-29, MTT, 72 h, mean ± SD, read-out: IC50 (μM) ±SD HT29
Procedure: (§1) To evaluate the antiproliferative activity, all synthesized derivatives (5a–5v and 7a–7h) were investigated for their activity in vitro against a panel of cancer cell lines including HT-29 (human colon cancer), H460 (human lung cancer), A549 (human lung carcinoma), MKN-45 (human gastric cancer) and SMMC-7721 (human liver cancer) by MTT assay. CA-4 and Crolibulin were served as positive control, and the results expressed as half-maximal inhibitory concentration (IC50). IC50 values are the concentrations that cause 50% inhibition of cancer cell growth (μM). Data represent the mean values ± standard deviation (SD) of independent experiments performed in triplicate.
(§2) Cell lines and culture conditions.The human colon carcinoma cell line HT-29, the human pulmonary carcinoma cell line A549, the human gastric carcinoma cell line MKN-45, the human breast cancer cell line MDA-MB-231 and human heptocarcinoma cellline SMMC-7721were cultured in RPMI-1640 mediumcontaining 10% FBS, 100 U/mL streptomycin and 100 U/mL penicillinat 37 °C in humidified atmosphere with 5% CO2. All of the cells were purchased from the American Type Culture Collection (ATCC, Manassas, VA).
(§3) The antiproliferative activities in vitro of Crolibulin and all the target compounds were determined by an MTT assay. Briefly, cells were seeded into 96-well plates at a density of 1–3 × 10^4/well (depends on the cell growth rate). 24 h later, triplicate wells were treated with media and the agents. After 72 h ofincubation at 37 °C in 5% CO2, the drug containing medium wasremoved and replaced by 100 mL of fresh medium with 5 mg/mLMTT solution. After 4 h of incubation, the medium with MTT was removed, and […] of DMSO was added to each well. The plates were gently agitated until the purple formazan crystals were dissolved, and the OD490 was determinedusing a microplate reader (MK3, Thermo, Germany). The data were calculated and plotted as the percent viability compared to the control. The 50% inhibitory concentration (IC50) was defined as theconcentration that reduced the absorbance of the untreated wells by 50% of the vehicle in the MTT assay.

H460 (human lung cancer) = assay: MTT antiproliferative assay, H460; type: cell-based; settings: for IC50: MTT, 72 h, mean ± SD
Procedure: as §1, §3

[2] = tested on: A549 (human lung carcinoma); assay: MTT antiproliferative assay, A549; type: cell-based; settings: 72 h, mean ± SD
Procedure: as §1, §2, §3

[3] = tested on: MKN-45 (human gastric cancer); assay: MTT antiproliferative assay, MKN-45; type: cell-based; settings: 72 h, mean ± SD, read-out: IC50 (μM) ±SD MKN45
Procedure: as §1, §2, §3

[4] = tested on: SMMC-7721 (human liver cancer); assay: MTT antiproliferative assay, SMMC-7721; type: cell-based; settings: 72 h, mean ± SD
Procedure: Data represent the mean values ± standard deviation (SD) of independent experiments performed in triplicate.
All of the cells were purchased from the American Type Culture Collection (ATCC, Manassas, VA).
as §3, with “After 72 h ofincubation at 37 °C in 5% CO2, the drug containing medium wasremoved and replaced by 100 mL of fresh medium with 5 mg/mLMTT solution.” left out, “control.” for “control. The 50% inhibitory concentration (IC50) was defined as theconcentration that reduced the absorbance of the untreated wells by 50% of the vehicle in the MTT assay.”

[5] = tested on: microtubules in HT-29 cells; assay: Immunofluorescence staining of microtubule network; type: cell-based, human; settings: HT-29, 20 nM, 12 h, anti-α-tubulin immunostaining
Procedure: After incubation, cells were fixed, reacted with monoclonal anti-tubulin antibody at 4 °C overnight and then reacted with fluorescein isothiocyanate (FITC) conjugated secondary antibody, DAPI was used for nuclear counter-staining, the cellular microtubules were observed under fluorescence microscope (scale bar = 20 μm).
The HT-29 cells were seeded at 1 × 10^4 per well on a 24 wellplate and grown for 24 h. […] Cells in the control group were treated with culture medium. The control and treated cells were fixed with 4% formaldehydein PBS for 30 min at −20 °C, then washed twice with PBS and permeabilized with 0.1% (v/v) Triton X-100 in PBS for 5 min. Then, the cells were blocked with 3% bovine serum albumin(BSA) in PBS for 30 min. The primary α-tubulin antibody wasdiluted (1:100) with 2% BSA in PBS and incubated overnight at 4 °C. The cells were washed with PBS to remove unbound primaryantibody and then cells were incubated with FITC-conjugated antimousesecondary antibody, diluted (1:100) with 2% BSA in PBS, for 2 h at 37 °C. The cells were washed with PBS to remove unbound secondary antibody, nucleus was stained with 4,6-diamino-2-phenolindoldihydrochloride (DAPI) and then, immunofluorescencewas detected using a fluorescence microscope (Olympus,Tokyo, Japan).

[6] = tested on: human fetal hepatocyte line L02; assay: MTT assay on normal cell line L02; type: cell-based; settings: non-cancer cell line
Procedure: The drug candidate potency depends not only on its cytotoxicity in malignant cells, but also on its relative lack of toxicity toward normal cells.
as §3

[7] = tested on: HT-29, H460, A549, MKN-45 and SMMC-7721 cell lines; assay: MTT antiproliferative assay, panel of five cancer cell lines; type: cell-based, human; settings: ratio of IC50 values
Procedure: IC50 values are the concentrations that cause 50% inhibition of cancer cell growth (μM). Data represent the mean values ± standard deviation (SD) of independent experiments performed in triplicate.
as §3

Compound | IC50 [1] [µM] | IC50 (H460 (human lung cancer); Homo sapiens, NCI-H460) [µM] | IC50 [2] [µM] | IC50 [3] [µM] | IC50 [4] [µM] | effect on microtubule network [5] | IC50 (H460 (human lung cancer); Homo sapiens, NCI-H460, 72 h) [µM] | effect on normal cell L02 [6] | melting point [°C] | fold increased potency over 5a (H), 5c (3-OMe) and 5d (4-OMe) [7] | fold more active in H460 than 5h (H460 (human lung cancer); ratio of IC50 values) | fold more potent than 5a on HT-29 cell ([1]; ratio of IC50 values) | IC50 (H460 (human lung cancer)) [µM]
COc1ccc(/C=C\c2cc(OC)c(OC)c(OC)c2)cc1O [CA-4, Combretastatin A-4, reference compound] | 0.05 ± 0.01 | 0.08 ± 0.01 | 0.43 ± 0.053 | 0.11 ± 0.02 | 1.92 ± 0.11 | cellular microtubule depolymerization | – | – | – | – | – | – | –
Cc1ccccc1-c1cc(-c2c[nH]c3ccccc23)n2ccnc2c1C#N [5b, 5-(1H-indol-3-yl)-7-(o-tolyl)imidazo[1,2-a]pyridine-8-carbonitrile] | 0.16 ± 0.04 | – | 0.23 ± 0.04 | 1.52 ± 0.15 | 0.82 ± 0.06 | – | 46.3 ± 5.26 | negligible effects | 334.3 to 335.1 | – | – | – | –
COc1cccc(-c2cc(-c3c[nH]c4ccccc34)n3ccnc3c2C#N)c1 [5c, 5-(1H-indol-3-yl)-7-(3-methoxyphenyl)imidazo[1,2-a]pyridine-8-carbonitrile] | 0.24 ± 0.01 | – | 12.2 ± 1.89 | 1.24 ± 0.08 | 76.2 ± 8.98 | – | 17.5 ± 1.53 | – | 316.5 to 318.7 | – | – | – | –
N#Cc1c(-c2ccccc2Cl)cc(-c2c[nH]c3ccccc23)n2ccnc12 [5f, 7-(2-chlorophenyl)-5-(1H-indol-3-yl)imidazo[1,2-a]pyridine-8-carbonitrile] | 0.07 ± 0.004 | – | 0.95 ± 0.07 | 0.38 ± 0.06 | 13.8 ± 2.23 | – | 0.18 ± 0.08 | negligible effects | 296.7 to 300.1 | at least 1.7 fold | – | – | –
CN(C)Cc1cn2c(-c3c[nH]c4ccccc34)cc(-c3ccc(F)cc3Cl)c(C#N)c2n1 [7d, 7-(2-chloro-4-fluorophenyl)-2-((dimethylamino)methyl)-5-(1H-indol-3-yl)imidazo[1,2-a]pyridine-8-carbonitrile] | 0.19 ± 0.02 | – | 7.53 ± 0.63 | 16.6 ± 1.13 | 22.1 ± 3.41 | – | 0.71 ± 0.05 | – | 175.4 to 178.4 | – | – | – | –
CCN(CC)Cc1cn2c(-c3c[nH]c4ccccc34)cc(-c3ccc(F)cc3Cl)c(C#N)c2n1 [7e, 7-(2-chloro-4-fluorophenyl)-2-((diethylamino)methyl)-5-(1H-indol-3-yl)imidazo[1,2-a]pyridine-8-carbonitrile] | 0.21 ± 0.03 | – | 4.87 ± 0.38 | 13.8 ± 1.79 | 24.6 ± 2.73 | – | 0.67 ± 0.05 | – | 181.2 to 184.5 | – | – | – | –
CC1CCN(Cc2cn3c(-c4c[nH]c5ccccc45)cc(-c4ccc(F)cc4Cl)c(C#N)c3n2)CC1 [7f, 7-(2-chloro-4-fluorophenyl)-5-(1H-indol-3-yl)-2-((4-methylpiperidin-1-yl)methyl)imidazo[1,2-a]pyridine-8-carbonitrile] | 0.56 ± 0.07 | – | 20.3 ± 2.32 | 1.63 ± 0.28 | 11.3 ± 2.15 | – | 0.85 ± 0.06 | – | 185.7 to 187.9 | – | – | – | –
N#Cc1c(-c2ccc(F)cc2F)cc(-c2c[nH]c3ccccc23)n2ccnc12 [5i, 7-(2,4-difluorophenyl)-5-(1H-indol-3-yl)imidazo[1,2-a]pyridine-8-carbonitrile] | 0.08 ± 0.001 | – | 0.12 ± 0.03 | 0.03 ± 0.006 | 13.6 ± 2.38 | – | 0.04 ± 0.001 | – | 340.3 to 346.2 | – | about 29 fold | – | –
N#Cc1c(-c2ccccc2F)cc(-c2c[nH]c3ccccc23)n2ccnc12 [5e, 7-(2-fluorophenyl)-5-(1H-indol-3-yl)imidazo[1,2-a]pyridine-8-carbonitrile] | 0.09 ± 0.01 | – | 5.67 ± 0.23 | 0.96 ± 0.06 | 26.2 ± 2.82 | – | 1.16 ± 0.12 | – | 304.6 to 308.8 | at least 1.7 fold | – | – | –
N#Cc1c(-c2ccc(F)cc2Cl)cc(-c2c[nH]c3ccccc23)n2cc(CN3CCOCC3)nc12 [7h, 7-(2-chloro-4-fluorophenyl)-5-(1H-indol-3-yl)-2-(morpholinomethyl)imidazo[1,2-a]pyridine-8-carbonitrile] | 0.92 ± 0.14 | – | 16.9 ± 1.98 | 36.3 ± 5.15 | 28.7 ± 1.79 | – | 1.27 ± 0.14 | – | 201.3 to 203.5 | – | – | – | –
N#Cc1c(-c2ccccc2)cc(-c2c[nH]c3ccccc23)n2ccnc12 [5a, 5-(1H-indol-3-yl)-7-phenylimidazo[1,2-a]pyridine-8-carbonitrile] | 0.3 ± 0.04 | – | 86.4 ± 7.33 | 79.7 ± 8.1 | 89.4 ± 2.6 | – | 2.79 ± 0.52 | – | 338.3 to 339.7 | – | – | – | –
CC(C)NCc1cn2c(-c3c[nH]c4ccccc34)cc(-c3ccc(F)cc3Cl)c(C#N)c2n1 [7c, 7-(2-chloro-4-fluorophenyl)-5-(1H-indol-3-yl)-2-((isopropylamino)methyl)imidazo[1,2-a]pyridine-8-carbonitrile] | 0.33 ± 0.04 | – | 6.18 ± 0.71 | 22.4 ± 2.51 | 36.7 ± 4.92 | – | 0.96 ± 0.07 | – | 222.2 to 225.3 | – | – | – | –
N#Cc1c(-c2ccc(Br)cc2)cc(-c2c[nH]c3ccccc23)n2ccnc12 [5h, 7-(4-bromophenyl)-5-(1H-indol-3-yl)imidazo[1,2-a]pyridine-8-carbonitrile] | 0.12 ± 0.02 | – | 8.54 ± 0.93 | 2.76 ± 0.47 | 53.5 ± 7.76 | – | 1.16 | – | 307.8 to 309.5 | – | – | about 2.5 fold | 0.95 ± 0.03
